Laboratory results reported in ChEMBL document CHEMBL4316628, “Bioactivity-guided identification of flavonoids with cholinesterase and β-amyloid peptide aggregation inhibitory effects from the seeds of Millettia pachycarpa” (Bioorg Med Chem Lett, 2019).
Activity calls are given as the source filed them. The rule behind the calls is not given here.

Experiments:
[1] = target: T1, Cholinesterase (Homo sapiens, UniProt P06276); assay: Inhibition of BChE (unknown origin) using butyrylthiocholine iodide as substrate by spectrophotometry based Ellman's method
[2] = target: T1, Cholinesterase; assay: Inhibition of BChE (unknown origin) at 20 ug/mL using butyrylthiocholine iodide as substrate by spectrophotometry based Ellman's method
[3] = target: T2, Acetylcholinesterase (Homo sapiens, UniProt P22303); assay: Inhibition of AChE (unknown origin) using acetylthiocholine iodide as substrate by spectrophotometry based Ellman's method
[4] = target: T1, Cholinesterase; assay: Mixed type inhibition of BChE (unknown origin) using butyrylthiocholine iodide as substrate by Ellman's method based Lineweaver-Burk plot analysis
[5] = target: Amyloid-beta precursor protein (Homo sapiens) (UniProt P05067); assay: Inhibition of amyloid beta (1 to 42) (unknown origin) self-aggregation at 80 uM incubated for 48 hrs by thioflavin-T fluorescence method
[6] = target: Beta-secretase 1 (Homo sapiens, UniProt P56817); assay: Inhibition of BACE1 (unknown origin) expressed in baculovirus-expression system using Rh-EVNLDAEFK-Quencher substrate by FRET assay
[7] = target: Amyloid-beta precursor protein (Homo sapiens) (UniProt P05067); assay: Inhibition of amyloid beta (1 to 42) (unknown origin) self-aggregation at 40 uM incubated for 48 hrs by thioflavin-T fluorescence method
[8] = target: Amyloid-beta precursor protein (Homo sapiens) (UniProt P05067); assay: Inhibition of amyloid beta (1 to 42) (unknown origin) self-aggregation incubated for 48 hrs by thioflavin-T fluorescence method
[9] = target: Amyloid-beta precursor protein (Homo sapiens) (UniProt P05067); assay: Inhibition of amyloid beta (1 to 42) (unknown origin) self-aggregation at 20 uM incubated for 48 hrs by thioflavin-T fluorescence method
[10] = target: T2, Acetylcholinesterase; assay: Competitive type inhibition of AChE (unknown origin) using acetylthiocholine iodide as substrate by Ellman's method based Lineweaver-Burk plot analysis
[11] = target: T1, Cholinesterase; assay: Binding affinity to BChE (unknown origin) assessed as reduction in intrinsic protein fluorescence at 25 degC by fluorescence spectrophotometry
[12] = target: T2, Acetylcholinesterase; assay: Binding affinity to AChE (unknown origin) assessed as reduction in intrinsic protein fluorescence at 25 degC by fluorescence spectrophotometry
[13] = target: T1, Cholinesterase; settings: 100 ug/mL
Description: Inhibition of BChE (unknown origin) at 100 ug/mL using butyrylthiocholine iodide as substrate by spectrophotometry based Ellman's method

T2 sequence (P22303 whole entry): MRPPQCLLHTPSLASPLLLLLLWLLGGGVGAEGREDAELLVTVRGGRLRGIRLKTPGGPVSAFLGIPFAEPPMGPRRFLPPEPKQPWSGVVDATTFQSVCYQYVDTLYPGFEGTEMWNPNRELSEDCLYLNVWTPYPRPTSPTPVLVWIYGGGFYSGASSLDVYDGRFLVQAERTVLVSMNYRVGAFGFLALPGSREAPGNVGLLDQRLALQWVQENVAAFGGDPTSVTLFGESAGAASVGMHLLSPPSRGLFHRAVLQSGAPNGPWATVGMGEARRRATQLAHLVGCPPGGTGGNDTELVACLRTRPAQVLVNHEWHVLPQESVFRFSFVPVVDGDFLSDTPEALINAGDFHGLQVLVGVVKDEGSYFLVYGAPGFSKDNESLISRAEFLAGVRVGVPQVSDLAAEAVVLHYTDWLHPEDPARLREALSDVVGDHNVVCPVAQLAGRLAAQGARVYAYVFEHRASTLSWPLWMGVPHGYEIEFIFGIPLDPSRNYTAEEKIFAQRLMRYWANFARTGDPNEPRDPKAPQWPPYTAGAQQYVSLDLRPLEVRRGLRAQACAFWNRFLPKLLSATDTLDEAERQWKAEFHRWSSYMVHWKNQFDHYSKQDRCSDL
T1 sequence (P06276 whole entry): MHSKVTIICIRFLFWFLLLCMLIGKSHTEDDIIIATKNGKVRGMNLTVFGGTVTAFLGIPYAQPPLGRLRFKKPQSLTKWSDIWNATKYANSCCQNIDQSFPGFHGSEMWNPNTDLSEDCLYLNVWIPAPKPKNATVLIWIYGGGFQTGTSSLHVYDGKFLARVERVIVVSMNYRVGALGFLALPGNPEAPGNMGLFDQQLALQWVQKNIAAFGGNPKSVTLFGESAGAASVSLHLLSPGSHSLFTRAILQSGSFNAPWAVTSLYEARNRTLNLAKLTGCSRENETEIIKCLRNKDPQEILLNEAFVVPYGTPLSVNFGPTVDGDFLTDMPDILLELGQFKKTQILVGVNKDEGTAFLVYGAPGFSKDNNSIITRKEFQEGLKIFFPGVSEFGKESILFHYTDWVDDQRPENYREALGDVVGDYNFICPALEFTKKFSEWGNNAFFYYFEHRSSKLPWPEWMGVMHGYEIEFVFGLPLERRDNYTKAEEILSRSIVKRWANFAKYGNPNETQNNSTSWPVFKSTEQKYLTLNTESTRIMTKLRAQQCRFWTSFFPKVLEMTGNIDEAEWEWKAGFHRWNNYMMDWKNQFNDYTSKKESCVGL
Amyloid-beta precursor protein (Homo sapiens), sequence (P05067 whole entry): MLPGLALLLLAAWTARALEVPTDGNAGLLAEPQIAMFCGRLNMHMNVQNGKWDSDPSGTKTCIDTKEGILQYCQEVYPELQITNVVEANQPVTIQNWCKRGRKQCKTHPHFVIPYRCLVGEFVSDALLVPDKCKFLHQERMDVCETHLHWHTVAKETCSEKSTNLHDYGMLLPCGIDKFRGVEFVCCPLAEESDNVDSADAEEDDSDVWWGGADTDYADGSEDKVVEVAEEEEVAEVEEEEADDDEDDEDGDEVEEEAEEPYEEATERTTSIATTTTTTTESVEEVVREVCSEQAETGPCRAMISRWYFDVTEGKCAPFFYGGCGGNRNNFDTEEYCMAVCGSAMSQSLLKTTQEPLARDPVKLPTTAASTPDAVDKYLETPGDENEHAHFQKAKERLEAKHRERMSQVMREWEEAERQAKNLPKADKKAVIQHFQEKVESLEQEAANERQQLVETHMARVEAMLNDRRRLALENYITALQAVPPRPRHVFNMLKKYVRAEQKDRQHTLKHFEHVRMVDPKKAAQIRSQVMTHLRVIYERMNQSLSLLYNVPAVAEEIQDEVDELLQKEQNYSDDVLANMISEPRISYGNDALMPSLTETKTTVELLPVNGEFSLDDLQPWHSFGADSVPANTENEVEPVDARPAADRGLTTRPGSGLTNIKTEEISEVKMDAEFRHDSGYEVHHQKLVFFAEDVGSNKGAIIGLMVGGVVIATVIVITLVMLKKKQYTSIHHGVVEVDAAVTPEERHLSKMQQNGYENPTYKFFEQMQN
Beta-secretase 1, sequence (P56817 whole entry): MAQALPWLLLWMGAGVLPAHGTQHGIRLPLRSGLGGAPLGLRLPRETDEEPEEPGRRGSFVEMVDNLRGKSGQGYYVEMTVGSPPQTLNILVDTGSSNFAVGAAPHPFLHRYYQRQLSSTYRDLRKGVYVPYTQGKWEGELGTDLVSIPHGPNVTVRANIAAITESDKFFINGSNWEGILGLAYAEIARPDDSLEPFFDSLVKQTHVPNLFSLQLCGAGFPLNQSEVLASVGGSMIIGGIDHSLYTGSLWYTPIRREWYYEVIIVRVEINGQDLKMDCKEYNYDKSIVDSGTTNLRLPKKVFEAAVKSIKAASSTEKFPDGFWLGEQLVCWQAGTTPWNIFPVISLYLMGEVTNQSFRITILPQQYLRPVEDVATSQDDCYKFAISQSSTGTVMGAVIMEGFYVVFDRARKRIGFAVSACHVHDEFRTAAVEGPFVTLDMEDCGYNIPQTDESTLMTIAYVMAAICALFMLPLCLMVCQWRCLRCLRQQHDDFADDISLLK

C=C(C)[C@H]1Cc2c(ccc3c2O[C@@H]2COc4cc(OC)c(OC)cc4[C@]2(O)C3=O)O1 [ROTENOLONE]
IC50 [1]: Not Active | inhibition [2]: 9.87% | IC50 [3]: Not Active

CC1(C)C=Cc2c(ccc(C(=O)/C=C/c3ccc(O)cc3)c2O)O1
Ki [4]: 3.48 µM | inhibition [5]: 73.3% | IC50 ([1]; read-out: IC50): 5.68 µM | IC50 [6]: 9.8 µM | inhibition [7]: 65.7% | inhibition [8]: Dose-dependent effect | inhibition [2]: 86.5% | inhibition [9]: 53.7% | IC50 ([3]; read-out: IC50): 17.1 µM | Ki [10]: 7.39 µM | Activity [11]: Dose-dependent effect | IC50 [11]: 2.57 µM | Activity [12]: Dose-dependent effect | IC50 [12]: 29.6 µM

COc1ccc2c3c1O[C@H]1C[C@@H](O)C=C[C@@]31CCN(C)C2
inhibition [2]: 94.6% | inhibition [13]: 94.6%

COC1=CC(=O)C(OC)(OC)C=C1[C@@]1(O)C(=O)c2ccc3c(c2O[C@@H]1CO)C=CC(C)(C)O3
IC50 [1]: Not Active | inhibition [2]: 17.1% | IC50 [3]: Not Active

COc1ccc(-c2coc3c4c(ccc3c2=O)OC(C)(C)C=C4)cc1OC
Ki [4]: 0.92 µM | inhibition [5]: inactive | IC50 ([1]; read-out: IC50): 2.34 µM | inhibition [7]: inactive | inhibition [2]: 98.2% | inhibition [9]: inactive | IC50 ([3]; read-out: IC50): 131 µM | IC50 [11]: 7.82 µM

CC1(C)C=Cc2c(ccc3c2OC(c2ccc(O)cc2)CC3=O)O1 (centres undefined)
Ki [4]: 3.73 µM | inhibition [5]: 73.5% | IC50 ([1]; read-out: IC50): 11.5 µM | inhibition [7]: 63.5% | inhibition [2]: 91.9% | inhibition [9]: 50.9% | IC50 [3]: Not Active | IC50 [11]: 3.57 µM

COc1cc(/C=C/C(=O)CC(=O)/C=C/c2ccc(O)c(OC)c2)ccc1O
inhibition [5]: Active | inhibition [7]: Active | inhibition [9]: Active

COc1ccc(C2CC(=O)c3ccc4c(c3O2)C=CC(C)(C)O4)cc1 (centres undefined)
IC50 ([1]; read-out: IC50): 225 µM | inhibition [2]: 24.7% | IC50 ([3]; read-out: IC50): 91.1 µM

COc1cc(OC)c(-c2coc3c4c(ccc3c2=O)OC(C)(C)C=C4)cc1OC
inhibition [5]: inactive | IC50 ([1]; read-out: IC50): 21.8 µM | inhibition [7]: inactive | inhibition [2]: 68.5% | inhibition [9]: inactive | IC50 ([3]; read-out: IC50): 122 µM

COc1ccc(/C=C/C(=O)c2ccc3c(c2O)C=CC(C)(C)O3)cc1
IC50 ([1]; read-out: IC50): 102 µM | inhibition [2]: 37% | IC50 ([3]; read-out: IC50): 74.7 µM

COc1cc2c(cc1OC)[C@@H]1C(=O)c3ccc4c(c3O[C@@H]1CO2)C=CC(C)(C)O4 [DEGUELIN]
IC50 [1]: Not Active | inhibition [2]: 14.2% | IC50 ([3]; read-out: IC50): 127 µM

COc1cc2c(cc1OC)[C@]1(O)C(=O)c3ccc4c(c3O[C@@H]1CO2)C=CC(C)(C)O4 [TEPHROSIN]
IC50 [1]: Not Active | inhibition [2]: 16.2% | IC50 ([3]; read-out: IC50): 127 µM
